Experimental data reported in article PMC9181795, “Ibuprofen Favors Binding of Amyloid-β Peptide to Its Depot, Serum Albumin” (International Journal of Molecular Sciences, 2022).
Entries after “also recorded” stand apart in the source; their conditions may differ.

Key:
[1] = test system: Aβ40(A21G); experiment: ThT fluorescence assay, Aβ40(A21G) fibrillation; type: biochemical, human; conditions: 20 µM IBU, 20 µM Aβ40(A21G), no HSA, 30 °C, pH 7.4
Experimental: (§1) ThT fluorescence emission measurements were carried out using a BioTek Synergy H1 multimode microplate reader and Greiner Bio-One non-binding microplates #781906 mainly as described in ref. [11]. […] ThT fluorescence was excited at 440 nm and emission at 485 nm was measured for 190 h every 30 min, with orbital shaking prior to each measurement. […] The lag time, tlag, is calculated as (t0 − 2/kapp).

[2] = test system: HSA; conditions: cited from earlier work
[3] = test system: Aβ40; experiment: ThT fluorescence assay, Aβ40 fibrillation; type: biochemical, human
Experimental: as §1

[4] = test system: AD; parameters: method as in 2 sources, one per row (each row's own in cited_ref): ref [36],[37],[38] = [36]; PMID 11794217; doi:10.1056/NEJMoa010178; 36. In’T Veld B.A. Ruitenberg A. Hofman A. Launer L.J. Van Duijn C.M. Stijnen T. Breteler M.M. Stricker B.H. Nonsteroidal antiinflammatory drugs and the risk of Alzheimer’s disease N. Engl. J. Med. 20 || [37]; PMID 18458226; doi:10.1212/01.wnl.0000311269.57716.63; 37. Vlad S.C. Miller D.R. Kowall N.W. Felson D.T. Protective effects of NSAIDs on the development of Alzheimer disease Neurology 2008 70 1672 1677 10.1212/01.wnl.0000311269.57716.63 18458226 PMC275824 || [38]; PMID 25227314; doi:10.3233/JAD-141506; 38. Wang J. Tan L. Wang H.F. Tan C.C. Meng X.F. Wang C. Tang S.W. Yu J.T. Anti-inflammatory drugs and risk of Alzheimer’s disease: An updated systematic review and meta-analysis J. Alzheimers Dis. 201 ||| ref [36],[37],[73] = [36]; PMID 11794217; doi:10.1056/NEJMoa010178; 36. In’T Veld B.A. Ruitenberg A. Hofman A. Launer L.J. Van Duijn C.M. Stijnen T. Breteler M.M. Stricker B.H. Nonsteroidal antiinflammatory drugs and the risk of Alzheimer’s disease N. Engl. J. Med. 20 || [37]; PMID 18458226; doi:10.1212/01.wnl.0000311269.57716.63; 37. Vlad S.C. Miller D.R. Kowall N.W. Felson D.T. Protective effects of NSAIDs on the development of Alzheimer disease Neurology 2008 70 1672 1677 10.1212/01.wnl.0000311269.57716.63 18458226 PMC275824 || [73]; PMID 33134914; doi:10.1093/braincomms/fcaa109; 73. Rivers-Auty J. Mather A.E. Peters R. Lawrence C.B. Brough D. Anti-inflammatories in Alzheimer’s disease—potential therapy or spurious correlate? Brain Commun. 2020 2 fcaa109 10.1093/braincomms/fca; conditions: cited from earlier work
[5] = parameters: method as in doi:10.3109/03639048309039887, PMID 10714613; conditions: pH values above 7; ref [22],[23]; cited from earlier work
[6] = 20 µM IBU, no HSA, 20 µM Aβ40, 30 °C, Boltzmann sigmoid function, n = 3–5

CC(C)Cc1ccc(C(C)C(=O)O)cc1 (stereo not shown) [IBU, 2-[4-(2-methylpropyl)phenyl]propanoic acid]
suppression of fibrillation by IBU alone [1]: does not induce statistically significant suppression of the fibrillation process
effect of IBU on HSA affinity to heme ([2]; ref [74],[75]): allosterically affect HSA affinity to heme
effect of IBU binding on HSA affinity to lorazepam ([2]; ref [76]): enhanced its affinity to lorazepam
effect of IBU on suppression of Aβ40 fibrillation by HSA ([3]; 20 µM IBU + 2 µM HSA, 20 µM Aβ40, 30 °C, pH 7.4): strengthens the suppression of Aβ40 fibrillation by 2 µM HSA; also recorded: favors the suppression of fibrillation of 20 µM Aβ40 by 2 µM HSA
decline in tlag in response to IBU ([3]; 20 µM IBU in presence of 2 µM HSA, 20 µM Aβ40, 30 °C, n = 3–5): 21%
minor opposite effects of IBU on lag phase and rate constant ([3]; 20 µM IBU, 2 µM HSA, 20 µM Aβ40): shortening of the lag phase and decrease in the apparent rate constant of the process
suppression of fibrillation by IBU alone ([3]; 20 µM IBU, 20 µM Aβ40, no HSA, 30 °C, pH 7.4): does not induce statistically significant suppression of the fibrillation process
effect on apparent rate constant kapp [3, 6]: did not affect the kapp value
factor of shortening of lag phase (tlag) [3, 6]: 2
decrease in apparent rate constant kapp ([3]; combination of 2 µM HSA and 20 µM IBU, 20 µM Aβ40, 30 °C, n = 3–5): 17%
rates of AD among people taking IBU for chronic treatment of inflammatory conditions ([4]; ref [36],[37],[73]): lower rates of AD
AD protection with long-term use of nonsteroidal anti-inflammatory drugs, including IBU ([4]; retrospective studies, ref [36],[37],[38]): protective against AD
water solubility [5]: 100 to 1000 mM
